Assay results: patent US8551489B2, “Methods for the treatment of cancers” (MUSC Foundation for Research Development, priority 2008, dated 2013)
Entries after “also recorded” stand apart in the source; their conditions may differ. Read-outs that look alike come from different tables or passages of the source.

Columns and labels:
[1] = healthy individuals, patients with asthma or cardiovascular diseases, cited from earlier work
tumor cell = assay: Combination with paclitaxel in vitro, tumor cell death; format: cell-based; settings: antagonist added to paclitaxel in vitro
T24 cells [2] = assay: Sensitivity of T24 cells to cisplatin with TP receptor antagonists; format: cell-based, human
Procedure: SV-HUC and T24 cells were seeded at 5,000 cells per well in 96-well plates, and then treated with either compound or vehicle (ethanol) alone. The number of viable cells were quantified at the indicated time points, using the MTT (3-(4,5-Dimethyl-2-thiazolyl)-2,5-diphenyl-2H-tetrazolium bromide thiazole blue) assay, performed in quadruplicate, according to the manufacturer's instructions (Sigma-Aldrich). Optical density (OD) was measured at wavelength of 550 nm with reference wavelength of 690 nm.
Cell viability was analyzed under the microscope at 200× using trypan blue staining. Flow cytometric measurements of apoptosis were as follows. After 12 hours treatment with solvent control or TP receptor antagonists, cells were washed twice in ice cold phosphate buffered saline (PBS) and resuspended in binding buffer (10 mM HEPES, 140 mM NaCl, 2.5 mM CaCl2), at 1×10^6 cells in a 400 μl volume of binding buffer, in duplicate. Cells were incubated with 10 μl of human annexin V-phycoerythrin (PE) (BD Bioscience Inc.) for 15 min at room temperature in dark. […] The TUNEL assay was performed following the protocol of the TUNEL kit's manufacturer (Roche Diagnostics).

[3] = system: TCC-SUP human bladder cancer xenografts; assay: Xenograft mouse model, subcutaneous TCC-SUP in nu/nu mice; format: in vivo
Procedure: FIGS. 9A-B. TP receptor antagonist inhibits bladder cancer tumor growth. (FIG. 9A) Anti-tumor effects of GR32191 and cisplatin treatment in immunocompromised mice. Subcutaneous TCC-SUP human bladder cancer xenografts in nude mice were treated with vehicle control (12 mice), GR32191 (15 mice), 5 mg/kg cisplatin (cisplatin high) (12 mice), 5 mg/kg cisplatin in combination with GR32191 (13 mice), or 0.5 mg/kg (single low dose cisplatin) alone (10 mice) or 0.5 mg/kg cisplatin in combination with GR32191 (10 mice). Tumor size was measured over time. Kaplan-Meier curves showing time to tumor onset across the treatment groups. (FIG. 9B) Pathological evaluation of tumors derived from mice treated with GR32191 (n=15) and vehicle control mice (n=12). Representative images of CD31 staining, TUNEL, staining, PCNA staining, and H&E staining are shown. Graphs on the left indicate the quantitative analysis for each of these markers. Five fields from 5 independent tumors (total 25) were counted and scored blindly. Statistically significant (p<0.05) differences compared to vehicle alone were indicated (++p<0.001 or +p<0.05).
Antigen retrieval was done by heating in a microwave oven for 5 min on high power in 10 mM citrate, pH 6.0. Sections were washed and nonspecific binding was blocked with 10% horse serum in Tris-buffered saline (TBS) (50 mM Tris-HCl, 0.9% NaCl, pH 8.0) for 20 min, then incubated overnight at 4° C. with the TP isoform-specific primary antibodies at a 1:200 dilution in the blocking solution, anti-CD31 antibody (DAKO) was used at dilution 1:25. After overnight incubation at 4° C. followed by three 10-min washes in TBS. Immpress™ horse anti-rabbit secondary was incubated (Vector Laboratories, Burlingame, Calif.) for 45 min at room temperature. Slides were counterstained with hematoxylin. PCNA staining was done utilizing mouse monoclonal antibody against human PCNA (SantaCruz) at dilution 1:200. For TUNEL staining, sections were stained using the Situ Cell Death Detection Kit (Roche Applied Science).
TCC-SUP human bladder cancer cells or SV-HUC cells stably transfected with pcDNA3, TP-α or TP-β were used in a subcutaneous model in immunocompromised (nu/nu) mice. TCC-SUP cells (5×10^6 in PBS) or SV-HUC cells (5×10^7 in Matrigel™, BD Bioscience Inc.) were injected s.c. into the right and left flanks of anesthetized mice. Tumor growth was monitored in these mice twice a week. For mice injected with TCC-SUP, GR32191 or vehicle control was administered daily (20 mg/kg) by gavage with treatment initiated 24 hrs after initial injection. Two cycles of cisplatin (single high dose (5 mg/kg) or single low dose (0.5 mg/kg)) were administrated at day 4 and day 11 post tumor cell injection.
Kaplan-Meier survival curves were constructed for overall mouse survival for two groups with and without over-expressed TP-β receptor protein. ANOVA was used to analyze the in vitro drug treatments and drug combination data. Data are presented as the mean±SD. For all statistical tests, a two-sided p-value<0.05 was used to reject the null hypothesis. Kaplan-Meier curves were used to describe time to tumor onset in each mouse group, and a Cox proportional hazards model was used to estimate and test for differences across treatment groups. Hazard ratios and their 95% confidence intervals were to describe rates of tumor onset and p-values used to compare tumor onset across groups. The proportional hazards assumption was tested using Schoenfeld residuals. Differences in tumor growth were assessed by comparing the slopes of tumor growth across groups based on a linear longitudinal two-stage analysis where slopes were estimated in stage 1 and compared across mice in stage 2. Linear regression coefficients were evaluated using Wald tests. Statistical analyses were performed using R statistical software and utilized the survival library.

bladder cancer cells = assay: Migration and invasion assays; format: cell-based, human
Procedure: Cell migration experiments were carried out using 8-μm pore size migration chambers (Falcon, Becton Dickinson) precoated at 4° C. overnight with fibronectin (Becton Dickinson) at a concentration of 5 μg per square centimeter in PBS. The following day, the fibronectin solution was aspirated and the migration chambers were rinsed one time with water and allowed to air dry prior to the migration experiment. Cell invasion experiments were carried out using re-hydrated 8-μm pore size invasion chambers precoated with Matrigel (Becton Dickinson). Cells at 80% confluence were trypsinized, harvested, and counted. For each condition, cells were seeded at 25,000 cells/well (T24) or 100,000 cells/well (SV-HUC) in 500 μl serum free media, then added to each migration and invasion chamber. Medium (750 μl) containing 10% serum was used as a chemoattractant in the lower chamber. Both upper and lower chambers contained the indicated compound. Cells were allowed to migrate for eight hours or invade for 24 hours at 37° C. in the presence of 5% CO2. […] Migrating and invading cells in 10 high power fields in each chamber were counted and the mean cell number was calculated. Each experiment was conducted in triplicate and repeated three times.

TP-β = biological target: T1, TP-β (Homo sapiens, UniProt P21731); assay: Phosphorylation of ERK and FAK in SV-HUC cells transfected with TP-β; format: cell-based
T1 construct: expressed in transfected cells
Procedure: (§1) FIG. 7. Effects of U46619 and PTXA2 on phosphorylation of ERK and FAK. SV-HUC cells transfected with pcDNA3, TP-α or TP-β data are representative of 3 experiments.
(§2) Tumor and normal bladder tissues were snap-frozen in liquid nitrogen within 30 minutes after the surgery. Frozen sections were stained with hematoxylin and eosin and samples identified that had at least 70% tumor cells were selected for further studies. Pulverized tissue powders were lysed in RIPA buffer (150 mM NaCl, 50 mM Tris-HCl [pH 8.0], 1% Triton X100, 0.1% SDS, 1% deoxycholate and protease inhibitor cocktail [Complete Protease Inhibitors, Roche]) for 15 minutes on ice. Equal amounts of total protein (40 μg) were resolved by 12% SDS-PAGE and subjected to Western blot analyses using ECL system (Amersham-Pharmacia). Screening Western blots for TP-α and TP-β isoform expression in bladder cancer cell lines was done using rabbit polyclonal antibodies against TP-α or TP-β (described above). SVHUC cells stably transfected with TP-α or TP-β plasmids were screened for PCNA, tubulin, GAPDH, FAK, pFAK, ERK, pERK protein (Santa Cruz) and ICAM-1 (Abcam).
SV-HUC cells were grown to 80% confluence and transfected with 2 μg of pcDNA3 vector encoding either the TP-α or TP-β receptor isoforms. Transfection was performed in 6-well plates using the Fugene reagent (Roche) according to the manufacturer's instructions. After 72 hours post-transfection, cells were selected with 500 μg/ml G418 (Roche) and stable pools isolated after 14 days.

PTN mRNA = PTN mRNA expression after receptor antagonist / agonist; format: cell-based
Description: (§3) FIGS. 14A-F. TP-β regulation of pleiotrophin (PTN). […] (FIG. 14D) PTN mRNA reduction after PTXA2 treatment. The PTN mRNA levels are restored following the co-treatment with U46619. (FIG. 14E) shRNAi mediated knockdown of β-arrestin-2 reduced agonist dependent increase in PTN mRNA in HT-1376 cells (PTEN:wt), and UM-UC-3 cells (PTEN:minus). (FIG. 14F) Effect of U46619 on JNK1/2 and FOXO3a phosphorylation.

TP-α = biological target: T2, TP-α (Homo sapiens, UniProt P21731); assay: Phosphorylation of ERK and FAK in SV-HUC cells transfected with TP-α or pcDNA3; format: cell-based
T2 construct: expressed in transfected cells
T2 sequence (P21731 1-343): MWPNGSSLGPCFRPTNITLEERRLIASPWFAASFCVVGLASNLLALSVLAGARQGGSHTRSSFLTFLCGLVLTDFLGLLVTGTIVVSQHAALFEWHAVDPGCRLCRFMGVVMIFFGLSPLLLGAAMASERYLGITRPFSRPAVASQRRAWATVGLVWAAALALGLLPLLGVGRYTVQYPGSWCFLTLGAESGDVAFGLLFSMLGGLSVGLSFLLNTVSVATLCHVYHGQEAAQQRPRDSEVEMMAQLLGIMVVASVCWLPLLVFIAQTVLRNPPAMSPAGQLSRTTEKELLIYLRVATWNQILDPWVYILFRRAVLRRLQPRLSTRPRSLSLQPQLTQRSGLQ
Procedure: as §1, §2
SV-HUC cells were grown to 80% confluence and transfected with 2 μg of pcDNA3 vector encoding either the TP-α or TP-β receptor isoforms. Transfection was performed in 6-well plates using the Fugene reagent (Roche) according to the manufacturer's instructions. […]

JNK1/2 and FOXO3a = assay: Effect of U46619 on JNK1/2 and FOXO3a; format: cell-based; settings: agonist stimulation
Description: as §3

TP-β and PTEN = biological target: T3, TP-β and PTEN (Homo sapiens, UniProt P21731); assay: TP-β / PTEN co-immunoprecipitation and immunofluorescence; format: cell-based
T3 construct: endogenous in cells; host or cells: HT-1376 bladder cancer cells
Procedure: FIGS. 13A-D. TP-β receptor localization and interaction with PTEN. (FIG. 13A) Co-immunoprecipitation followed by Western blot analysis. Immunoprecipitation with TP-α or TP-β specific antibodies was performed using extracts prepared from HT-1376 cells. […] Extracts prepared from solvent or agonist treated cells were immunoprecipitated with TP-β specific antibody. […] After TP-β stimulation with the U46619, PTEN translocated from the cytoplasm to the nuclear membrane. (FIG. 13D) PTEN lipid phosphatase activity was diminished in SV-HUC cells transfected with TP-β compared to those transfected with TP-α.

T24 cells [4] = assay: Western blot of FAK and ERK phosphorylation in T24 cells; format: cell-based, human; settings: serum starved 12 hrs, treated 1 hr
Procedure: FIG. 6. Effect of TP receptor agonist (U46619) and antagonist (PTXA2) treatment on phosphorylation of FAK and ERK. T24 cells were serum starved for 12 hrs then treated with PTXA2 or U46619 for 1 hr. Tyrosine phosphorylation of FAK was assessed with western blot analysis on […] of cell lysate using anti-FAK pY397 (BD Bioscience) and pERK using a pERK specific antibody.
as §2

SV-HUC cells = assay: Western blot of FAK and ERK phosphorylation in SV-HUC cells; format: cell-based, human; settings: SV-HUC cells (TP-α expressor), not transfected
Procedure: as §2

[5] = vehicle treated mice compared to GR32191 treated mice

T1 sequence (P21731 1-407 isoform P21731-2): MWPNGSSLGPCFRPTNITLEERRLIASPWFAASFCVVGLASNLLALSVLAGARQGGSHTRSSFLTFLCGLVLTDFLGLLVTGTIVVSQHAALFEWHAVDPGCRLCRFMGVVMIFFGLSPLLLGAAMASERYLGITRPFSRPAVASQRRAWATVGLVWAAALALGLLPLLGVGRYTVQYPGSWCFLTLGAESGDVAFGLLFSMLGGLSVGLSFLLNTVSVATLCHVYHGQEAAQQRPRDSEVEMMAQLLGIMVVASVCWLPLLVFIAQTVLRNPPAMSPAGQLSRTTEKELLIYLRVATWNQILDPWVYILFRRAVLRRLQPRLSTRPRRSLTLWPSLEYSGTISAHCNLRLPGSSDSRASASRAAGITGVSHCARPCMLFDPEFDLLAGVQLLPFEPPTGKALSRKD
T3 sequence (P21731 1-407 isoform P21731-2): as above
T3 sequence (P60484 2-403 partner limits assumed): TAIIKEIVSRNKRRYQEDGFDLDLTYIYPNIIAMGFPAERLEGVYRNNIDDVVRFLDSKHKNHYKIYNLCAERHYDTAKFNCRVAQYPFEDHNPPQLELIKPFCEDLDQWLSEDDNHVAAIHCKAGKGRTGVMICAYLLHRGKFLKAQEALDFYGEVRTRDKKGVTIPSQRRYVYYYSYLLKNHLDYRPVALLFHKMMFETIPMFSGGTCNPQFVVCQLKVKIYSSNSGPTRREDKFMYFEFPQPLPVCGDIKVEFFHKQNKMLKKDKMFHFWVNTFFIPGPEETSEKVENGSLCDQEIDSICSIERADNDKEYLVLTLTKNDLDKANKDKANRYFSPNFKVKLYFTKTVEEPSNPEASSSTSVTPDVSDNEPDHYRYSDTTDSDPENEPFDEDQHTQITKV

## O=C(O)CC/C=C\CC[C@@H]1[C@@H](N2CCCCC2)[C@@H](O)C[C@@H]1OCc1ccc(-c2ccccc2)cc1 [GR32191]
[1]
  safety in clinical studies: shown to be safe
[1]; listed as GR
  safety in clinical studies: excellent safety profile
Tumor cell
  tumor cell death: synergistically increased tumor cell death
T24 cells [2]
  sensitivity to cisplatin: enhanced sensitivity to cisplatin
[3]; 20 mg/kg daily by gavage
  time of tumor free mice: significantly (P<0.04) extended
[3]; 20 mg/kg daily by gavage, monitored over time
  tumor growth: significantly inhibited
[3]; 20 mg/kg daily by gavage, started 24 hrs after cell injection
  detection of palpable tumors / time of tumor onset: delayed
[3]; GR32191 alone
  survival: prolonged survival
[3]; GR32191 in combination with cisplatin
  survival: prolonged survival
[3]; GR32191 treated compared to vehicle treated mice, p<0.05
  apoptosis, TUNEL staining: significant increase in apoptosis
[3]; vehicle control compared to mice treated with GR32191
  microvessel density (MVD), CD31 staining: significantly higher (p<0.05) microvessel density
[3]; [5]
  cell proliferation, PCNA staining: significantly increased (p<0.05) cell proliferation
  percentage of undifferentiated tumors, H&E staining: significantly higher percentage (p<0.01) of undifferentiated tumors
Bladder cancer cells; complementary studies, data not shown
  inhibition of cell migration and invasion: 65%

## CCCCC[C@H](O)/C=C/[C@@H]1[C@@H](C/C=C\CCCC(=O)O)[C@H]2CO[C@@H]1C2 [U46619]
TP-β; SV-HUC cells transfected with TP-β
  phosphorylation of FAK and ERK on agonist stimulation: stimulated pERK1/2 and pFAK; also recorded: stimulated the phosphorylation of FAK and ERK
PTN mRNA; co-incubation of agonist with PTXA2
  PTN expression: restored
TP-α
  phosphorylation of FAK and ERK on agonist stimulation: failed to stimulate
JNK1/2 and FOXO3a
  JNK1/2 activation: induced JNK1/2 activation
  expression of the transcription factor FOXO3a: reduced the expression
TP-β and PTEN; immunofluorescence, in the presence of agonist
  localization of TP-β and PTEN proteins: translocated to the nuclear membrane
TP-β and PTEN; immunoprecipitation with TP-β specific antibody, agonist versus solvent treated cells
  association between TP-β and PTEN: Increased association between TP-β and PTEN
Bladder cancer cells; T-24 cells, transwell migration assay, 1 μM U46619 for 12 hours
  cell migration: increase in migration
T24 cells [4]
  phospho-ERK and phospho-FAK levels: significantly increased; also recorded: increased phosphorylation

## O=C(O)CCC/C=C\C[C@@H]1[C@H](CNNC(=O)Nc2ccccc2)[C@H]2CC[C@@H]1O2 [SQ29548]
Tumor cell
  tumor cell death: synergistically increased tumor cell death
T24 cells [2]
  sensitivity to cisplatin: enhanced sensitivity to cisplatin

## CCCCC[C@@H](O)/C=C/[C@H]1C[C@H]2C[C@@H]([C@@H]1C/C=C\CCCC(=O)O)C2(C)C [PTXA2]
TP-β; SV-HUC cells transfected with TP-β, antagonist added
  U46619-stimulated increase in pERK1/2 and pFAK: blocked
TP-β; TP-β transfected SV-HUC cells, data not shown
  basal levels of pFAK and pERK: decreased the basal levels
SV-HUC cells
  phospho-ERK and phospho-FAK levels: no effect
PTN mRNA; incubation with receptor antagonist
  PTN mRNA expression: reduced PTN mRNA expression
T24 cells [4]
  phospho-ERK and phospho-FAK levels: reduction in the elevated basal levels; also recorded: significantly reduced
